Legend:
[1] = system: BaF3-MPL cells expressing WT or mutant LNK; test: JAK inhibitor growth assay of BaF3-MPL cells grown with TPO; format: cell-based; conditions: TPO 10 ng/mL, JAK inhibitor I 0.2 μM to 5 μM, FIG. 2C
Procedure: FIG. 2. LNK mutations cause dysregulated TPO-dependent growth and JAK2-STAT3/5 activation. BaF3-MPL cells were transduced with empty vector (EV), WT LNK (WT), or mutant LNK (DEL, E208Q, R392E). […] Viable cells were counted daily by staining with propidium iodide (PI) and quantitated with TruCount beads on a LSRII flow cytometer. Error bars represent the standard deviation of two replicates per sample. In Panel B, BaF3-MPL cells were stimulated with TPO (1 ng/ml) for the durations indicated, followed by measurement of JAK2, STAT3 and STAT5 activation via phospho-specific flow cytometry. […] Vertical lines denote the MFI of EV unstimulated cells for comparison. In Panel C, BaF3-MPL cells were cultured in the presence of DMSO control or concentrations of JAK inhibitor I ranging from 0.2 μM to 5 μM. Cumulative growth at four days (normalized to maximal growth for each cell line) is shown. Error bars represent the standard deviation of two replicates per sample.
BaF3-MPL cells were kindly provided by J. Tyner/B. Druker (Oregon Health and Sciences University, Portland, Oreg.) and were maintained in RPMI medium containing 10% FBS and IL-3 (1 ng/mL) (Peprotech, Rocky Hill, N.J.). […] Viable cells were counted daily by staining with propidium iodide (PI) and quantitated with TruCount beads (BD Biosciences, San Jose, Calif.) on a LSRII flow cytometer. […]

JAK2-STAT3/5 activation = test: TPO-stimulated JAK2, STAT3 and STAT5 activation by phospho-specific flow cytometry in BaF3-MPL cells; format: cell-based; conditions: BaF3-MPL cells expressing WT or mutant LNK; pre-incubated two hours with 0.2 μM to 5 μM, then TPO 10 ng/mL; FIG. 5
Procedure: FIG. 5. Activation of JAK2-STAT3/5 in BaF3-MPL cells expressing WT or mutant LNK requires JAK activity. BaF3-MPL cells expressing WT or mutant LNK were pre-incubated with DMSO or JAK inhibitor I at concentrations ranging from 0.2 μM to 5 μM for two hours prior to stimulation with TPO (10 ng/mL). JAK2, STAT3, and STAT5 activation were then measured by phospho-specific flow cytometry. Line graphs represent % maximal activation for each cell line.
BaF3-MPL cells were starved overnight in cytokine-free media and stimulated with TPO (1 or 10 ng/mL) for time points ranging from 15 minutes to 16 hours at 37° C. Peripheral blood samples were stimulated with either TPO (50 ng/ml) or G-CSF (20 ng/ml)(Peprotech, Rocky Hill, N.J.) for 15 minutes at 37° C. PBMCs were rested in RPMI with 10% FBS for one hour at 37° C. prior to cytokine stimulation. For the JAK inhibitor experiments, PBMCs were incubated with 5 μM JAK inhibitor I (EMD/Calbiochem, San Diego, Calif.) for the final 30 minutes prior to cytokine stimulation. Following cytokine stimulation, cells were fixed in paraformaldehyde (Electron Microscopy Sciences, Hatfield, Pa.). […] Cells were measured on a BD LSRII flow cytometer. […] Flow cytometry data was obtained with FACSDiva software and analyzed using FlowJo (Tree Star, Ashland, Oreg.) or Cytobank according to standard procedures. […]

[2] = system: STAT3/5 activation (pSTAT3+/5+ subpopulation); test: Cytokine-stimulated STAT3/5 activation by phospho-specific flow cytometry in patient peripheral blood immature myeloid cells; format: cell-based, human; conditions: samples from LNK DEL, E208Q, JAK2 V617F, MPL W515L patients and normal donor; 5 μM for 30 minutes, then TPO 50 ng/ml or G-CSF 20 ng/ml for 15 minutes; FIG. 3A
Procedure: FIG. 3. Identification of a cytokine-responsive pSTAT3+/pSTAT5+ population in CD34+ early progenitors from patients with LNK mutations. Peripheral blood samples from patients with the LNK DEL and E208Q mutations, as well as PMF patients with the JAK2 V617F and MPL W515L mutations, were compared with normal donor. CD3-/CD66-/CD33mid immature myeloid cells are shown in Panels A-C. In Panel A, samples were pre-incubated with either DMSO or JAK inhibitor I (5 μM) for 30 minutes, and then stimulated with either TPO (50 ng/ml) or G-CSF (20 ng/ml) for 15 minutes, prior to assessment of STAT3 and STAT5 activation by phospho-specific flow cytometry. […] For Panels A and B, numbers depicted in each quadrant represent the percentage of total cells present in each quadrant gate. […] DNA was isolated from each subset, and allele-specific quantitative PCR for the DEL mutation was performed. […]
BaF3-MPL cells were starved overnight in cytokine-free media and stimulated with TPO (1 or 10 ng/mL) for time points ranging from 15 minutes to 16 hours at 37° C. […] Cells were measured on a BD LSRII flow cytometer. […] Flow cytometry data was obtained with FACSDiva software and analyzed using FlowJo (Tree Star, Ashland, Oreg.) or Cytobank according to standard procedures. […]

Substance: JAK inhibitor I
- TPO-dependent growth (cumulative growth at four days) [1]: remained susceptible to JAK inhibition
- Inhibition of JAK2-STAT3/5 activation (JAK2-STAT3/5 activation): effectively inhibited
- Effect on cytokine-responsive pSTAT3+/5+ subpopulation [2]: completely eradicated

Reference: patent publication US8945846B2, “Mutations in the LNK gene in patients with myeloproliferative neoplasms and other hematolymphoid malignancies” (The Board of Trustees of the Leland Stanford Junior …, priority 2010, dated 2015)
